# From paper PMC10821532, “Sex and Cross-Sex Testosterone Treatment Alters Gamma-Hydroxybutyrate Acid Toxicokinetics and Toxicodynamics in Rats” (Pharmaceutics, 2024)
# Where two headings read alike, the source gives them in different places.
# Test: GHB toxicokinetic study, i.v. bolus, plasma and urine up to 8 h, noncompartmental analysis
# Assay type: in vivo, Sprague Dawley rats
# Details: for clearance / CL renal: Sprague Dawley, rat, iv; for CL renal: read-out: CLR - Renal clearance
# Experimental: Male and female Sprague Dawley (SD) rats, ovariectomized (OVX) females, and castrated (CST) males were obtained from Charles River (Wilmington, MA, USA) at 8 weeks of age. The animals were housed under controlled temperature and humidity with an artificial 12 h light/dark cycle, and food and water were available ad libitum. The animals were acclimatized for at least one week before experiments. Hormone treatment was conducted by implanting OVX female and CST male rats subcutaneously with 60-day release pellets containing 7.5 mg testosterone or corresponding placebo pellets (Innovative Research of America) at 10 weeks of age. After 21 days of hormone exposure, rats were utilized in toxicokinetic studies. Age-matched male and female rats were used as control groups. Female rats in the estrus stage were selected for the study. Estrus cycle stages of female rats were monitored daily by vaginal lavage smear, as described in previously published literature. The Institutional Animal Care and Use Committee (IACUC) at the University of the Pacific approved all experiments.
# Jugular vein cannulas were surgically implanted under anesthesia with ketamine/xylazine. Cannulas were flushed daily with heparinized saline to maintain patency. Rats were allowed a minimum of 72 h for recovery from surgery before the experiments were conducted. GHB was administered intravenously as a 1000 mg/kg i.v. bolus or 1500 mg/kg iv bolus with or without AR-C155858 (1 mg/kg i.v. bolus) via a jugular vein cannula to the animals at 13 weeks of age (N = 5–7 per group). Rats were dosed in metabolic cages with ad libitum access to water to allow for the concurrent collection of blood and urine samples for up to 8 h. GHB was administered as a 300 mg/mL solution in sterile water, and the time of administration was considered as time 0. AR-C155858 was administered as a 1 mg/mL solution in 10% cyclodextrin in normal saline 5 min after GHB administration. Blood samples (200 μL) were taken from the jugular vein cannula at different time points: 5, 10, 20, 30, 60, 90, 120, 180, 240, 270, 300, and 330 min for 1000 mg/kg and 10, 30, 60, 90, 120, 180, 240, 270, 300, 330, 360, and 390/480 min for 1500 mg/kg bolus with or without AR-C155858. Plasma samples were separated by centrifugation and stored at −20 °C. Urine samples were collected at 120, 240, and 360 min for 1000 mg/kg and 120, 240, and 390/480 min for 1500 mg/kg bolus with or without AR-C155858 post-dose; the total urine volume was determined, and the samples were stored at −20 °C.
# GHB in plasma and urine were quantified using a validated liquid chromatography/tandem mass spectrometry (LC/MS/MS) assay that was described previously. Briefly, for the preparation of plasma standards and quality controls (QCs), 5 μL of GHB-d6 and 5 μL of standard stock solution or QC stock solution were added to 45 μL of blank plasma. For each unknown plasma sample, 5 μL of GHB-d6 was added to 50 μL of plasma. Protein precipitation was then performed by the addition of 800 μL of acetonitrile with 0.1% formic acid, followed by centrifugation at 10,000 rpm for 20 min. 750 μL of the supernatant was transferred to a clean disposable glass tube and evaporated using a MultiVap Nitrogen Evaporator (Organomation, Berlin, MA, USA) under a nitrogen stream. Dried samples were reconstituted in 250 μL of 95:5 double-distilled water—acetonitrile with 0.1% acetic acid. For urine standards and QCs, 25 μL of blank urine, 5 μL of standard or QC stock solution, 5 μL of GHB-d6, and 465 μL of double-distilled water were mixed. For unknown urine samples, 25 μL of the sample was added to 5 μL of GHB-d6 and 470 μL of double-distilled water. The same LC/MS/MS method was used for GHB plasma and urine analyses. LC/MS/MS equipment consisted of an Agilent 1200 series UPLC consisting of an online degasser, binary pump, and autosampler (Agilent Technologies, Santa Clara, CA, USA) connected to a Agilent 6460 Triple Quad Mass Spectrometer. […]
# [1] = 1000 mg/kg GHB iv, OVX testosterone rats
# [2] = 1000 mg/kg GHB iv, intact female (estrus) rats
# [3] = 1000 mg/kg GHB iv, intact male rats
# [4] = 1500 mg/kg GHB + 1mg/kg AR-C 155858 iv, CST testosterone placebo rats
# [5] = 1500 mg/kg GHB + 1mg/kg AR-C 155858 iv, CST testosterone rats
# [6] = 1500 mg/kg GHB + 1mg/kg AR-C 155858 iv, OVX testosterone placebo rats
# [7] = 1500 mg/kg GHB + 1mg/kg AR-C 155858 iv, OVX testosterone rats
# [8] = 1500 mg/kg GHB + 1mg/kg AR-C 155858 iv, intact female (estrus) rats
# [9] = 1500 mg/kg GHB + 1mg/kg AR-C 155858 iv, intact male rats
# [10] = 1500 mg/kg GHB iv, CST testosterone placebo rats
# [11] = 1500 mg/kg GHB iv, CST testosterone rats
# [12] = 1500 mg/kg GHB iv, OVX testosterone placebo rats
# [13] = 1500 mg/kg GHB iv, OVX testosterone rats
# [14] = 1500 mg/kg GHB iv, intact female (estrus) rats
# [15] = 1500 mg/kg GHB iv, intact male rats
structure (smiles),measurement,setting,value
"O=C(O)CCCO [GHB, Γ-hydroxybutyric acid]",AUC - Area under the curve of plasma concentration versus time profile,"1000 mg/kg GHB iv, CST testosterone placebo rats",222 ± 40.7 mg·min/mL
same,AUC - Area under the curve of plasma concentration versus time profile,"1000 mg/kg GHB iv, CST testosterone rats",197 ± 35.5 mg·min/mL
same,AUC - Area under the curve of plasma concentration versus time profile,"1000 mg/kg GHB iv, OVX testosterone placebo rats",181 ± 10.6 mg·min/mL
same,AUC - Area under the curve of plasma concentration versus time profile,[1],169 ± 25.9 mg·min/mL
same,CL - Total clearance,[1],6.0 ± 0.8 mL/min/kg
same,AUC - Area under the curve of plasma concentration versus time profile,[2],150 ± 16.6 mg·min/mL
same,fe – The fraction of drug eliminated from urine,[2],0.39 ± 0.07
same,AUC - Area under the curve of plasma concentration versus time profile,[3],224 ± 39.8 mg·min/mL
same,fe – The fraction of drug eliminated from urine,[3],0.48 ± 0.06
same,AUC,[4],195 ± 29.6 mg·min/mL
same,fe (fraction of drug eliminated in urine),[4],0.69 ± 0.13
same,AUC,[5],207 ± 40.4 mg·min/mL
same,fe (fraction of drug eliminated in urine),[5],0.74 ± 0.03
same,AUC,[6],162 ± 34.8 mg·min/mL
same,fe (fraction of drug eliminated in urine),[6],0.73 ± 0.05
same,AUC,[7],163 ± 24.9 mg·min/mL
same,fe (fraction of drug eliminated in urine),[7],0.75 ± 0.09
same,AUC,[8],184 ± 36.3 mg·min/mL
same,fe (fraction of drug eliminated in urine),[8],0.73 ± 0.07
same,AUC,[9],185 ± 13.2 mg·min/mL
same,fe (fraction of drug eliminated in urine),[9],0.74 ± 0.03
same,AUC,[10],309 ± 23.8 mg·min/mL
same,fe (fraction of drug eliminated in urine),[10],0.60 ± 0.05
same,AUC,[11],496 ± 97.6 mg·min/mL
same,fe (fraction of drug eliminated in urine),[11],0.44 ± 0.09
same,AUC,[12],271 ± 47.0 mg·min/mL
same,fe (fraction of drug eliminated in urine),[12],0.62 ± 0.08
same,AUC,[13],290 ± 122.7 mg·min/mL
same,CL (total clearance),[13],6.1 ± 2.4 mL/min/kg
same,fe (fraction of drug eliminated in urine),[13],0.41 ± 0.09
same,AUC,[14],336 ± 78.8 mg·min/mL
same,fe (fraction of drug eliminated in urine),[14],0.78 ± 0.12
same,AUC,[15],343 ± 117.8 mg·min/mL
same,fe (fraction of drug eliminated in urine),[15],0.87 ± 0.07
same,clearance,"both sexes, plasma, 1500 mg/kg, 1500 mg/kg GHB iv, animal groups other than testosterone-treated OVX rats, read-out: Metabolic clearance, other animal groups",< 2.2 mL/min/kg
same,CL renal,"female, plasma and urine, 1000 mg/kg, 1000 mg/kg GHB iv, OVX testosterone placebo rats",2.4 ± 0.1 mL/min/kg
same,clearance,"female, plasma and urine, 1000 mg/kg, 1000 mg/kg GHB iv, OVX testosterone placebo rats, read-out: CLm – Metabolic clearance",3.1 ± 0.3 mL/min/kg
same,CL renal,"female, plasma and urine, 1000 mg/kg, 1000 mg/kg GHB iv, OVX testosterone rats",2.4 ± 0.7 mL/min/kg
same,clearance,"female, plasma and urine, 1000 mg/kg, 1000 mg/kg GHB iv, OVX testosterone rats, read-out: CLm – Metabolic clearance",3.6 ± 0.6 mL/min/kg
same,CL renal,"female, plasma and urine, 1000 mg/kg, 1000 mg/kg GHB iv, intact female (estrus) rats",2.6 ± 0.5 mL/min/kg
